Like-named read-outs stand apart in the source and are kept apart here.
Key:
Aedes aegypti = assay: Pesticidal effect (KD) against Aedes aegypti; format: in vivo
Experimental: With reference to FIG. 4A, the pesticidal effect against Aedes aegypti was determined for Blend 19 (labeled “HL1”, exemplified in Ingredient Family 15 in Table 6) and the composition including clothianidin (CL) and Blend 19.
Similarly, with reference to FIG. 4B, the pesticidal effect against Aedes aegypti was determined for Blend 19 (labeled “HL1”) and the composition including CL and Blend 19.
Similarly, with reference to FIG. 4C, the pesticidal effect against Aedes aegypti was determined for Blend 19 (labeled “HL1”) and the composition including Imidacloprid and Blend 19.
With reference to FIG. 5, the pesticidal effect against Aedes aegypti was determined for Blend 11 (labeled “B5028”, exemplified in Ingredient Family 2 in Table 6) and the composition including Imidacloprid (labeled “I”) and B5028.

Periplaneta americana = assay: Pesticidal effect (mortality) against Periplaneta americana; format: in vivo; conditions: 30 minutes post-treatment, Blend 19 5%
Experimental: With reference to FIG. 6A, the pesticidal effect against Periplaneta americana was determined for Blend 19 (labeled “HL1”, exemplified in Ingredient Family 15 in Table 6) and the composition including clothianidin (CL) and Blend 19.
With reference to FIG. 6B, the pesticidal effect against Periplaneta americana was determined for Blend 19 (labeled “HL1”) and the composition including Imidacloprid and Blend 19.

[1] = test system: Blattella germanica (German cockroaches); assay: Pesticidal effect against German cockroaches (knock down and 100% kill time); format: in vivo
Experimental: With reference to Table 9, the pesticidal effect against Blattella germanica (German cockroaches) was determined for DM, Blend 12 (exemplified in Ingredient Family 9 of Table 6), and the composition including deltamethrin (DM) and Blend 12.
Similarly, with reference to Table 10, the pesticidal effect against German cockroaches was determined for deltamethrin (DM), Blend 7 (exemplified in Ingredient Family 5 of Table 6), and the composition including DM and Blend 7.

Drosphila melanogaster = assay: Toxicity against Drosphila melanogaster by direct spray onto flies; format: in vivo, Drosophila melanogaster; conditions: 30 flies per composition, Fipronil 20 ppm, Blend 19 0.5 μg/fly, combination 0.5 μg Blend 19 + 20 ppm fipronil
Experimental: With reference to Table 14, the pesticidal effect against drosphila melanogaster was determined for Blend 19 and the composition including fipnoril and Blend 19. The composition of Blend 19 is also exemplified in Ingredient Family 15 of Table 6. Each composition was tested on 30 drosphila melanogaster by spraying directly onto the flies. Treatment with acetone as control at 0.5 μl/fly killed 2 flies, fipnoril alone at 20 ppm killed 12 flies, and Blend 19 alone at 0.5 μg/fly killed 10 flies. However, treatment with fipronil at 20 ppm combined with Blend 19 at 0.5 μg/fly killed all of the 30 flies.

adult green peach aphids = assay: Greenhouse spray test against adult green peach aphids; format: in vivo; conditions: imidacloprid in water at 100 ppm; three days after spraying
Excerpt: Adult green peach aphids were observed and counted on the plants in a greenhouse. Then different compositions were sprayed directly onto the plants with aphids. Three days after the composition was applied, aphids were counted again to evaluate the pesticidal effects of the composition.

Drosophila sp. = assay: Pesticidal effect (KD) against Drosophila sp.; format: in vivo; conditions: 30 seconds post-treatment; Imidacloprid 50 ppm; Blend 19 2.5%; combination 50 ppm + 2.5% (FIG. 4D)
Experimental: Similarly, with reference to FIG. 4D, the pesticidal effect against Drosophila sp. was determined for Blend 19 (labeled “HL1”) and the composition including Imidacloprid and Blend 19.

thrips = assay: Knockdown and mortality of thrips; format: in vivo
Experimental: Thrips were exposed to three different groups of compositions. Both knockdown (KD) and mortality were measured at indicated time intervals. Knockdown of target pests is measured in a plexilglass chamber at indicated intervals. Mortality of target pests is measured in cylindrical polyethylene containers with 10% sucrose pads. The mortality value is based on a combination of dead and moribund pests over the total number of pests initially released.
Thrips were exposed to three different groups of compositions. […] The composition of Blend 8 is exemplified in Ingredient Family 21 in Table 6.
Thrips were exposed to three different groups of compositions. […] Blend 38 (label “B5049” and “TT 1A”) is exemplified in Ingredient Family 12 in Table 6.

tyramine receptor (TyrR) = biological target: T1, tyramine receptor (TyrR) (Drosophila melanogaster, UniProt P22270); assay: 3H-tyramine saturation and inhibition binding to membranes of Schneider cells expressing tyramine receptor; conditions: for efficiency at displacing ^3H-tyramine binding: compared with tyramine
T1 construct: oligonucleotides that are used to amplify the open reading frame of the Drosophila tyramine receptor (TyrR); expressed in transfected cells; whole cells or crude membrane fractions
T1 sequence (P22270 27-601): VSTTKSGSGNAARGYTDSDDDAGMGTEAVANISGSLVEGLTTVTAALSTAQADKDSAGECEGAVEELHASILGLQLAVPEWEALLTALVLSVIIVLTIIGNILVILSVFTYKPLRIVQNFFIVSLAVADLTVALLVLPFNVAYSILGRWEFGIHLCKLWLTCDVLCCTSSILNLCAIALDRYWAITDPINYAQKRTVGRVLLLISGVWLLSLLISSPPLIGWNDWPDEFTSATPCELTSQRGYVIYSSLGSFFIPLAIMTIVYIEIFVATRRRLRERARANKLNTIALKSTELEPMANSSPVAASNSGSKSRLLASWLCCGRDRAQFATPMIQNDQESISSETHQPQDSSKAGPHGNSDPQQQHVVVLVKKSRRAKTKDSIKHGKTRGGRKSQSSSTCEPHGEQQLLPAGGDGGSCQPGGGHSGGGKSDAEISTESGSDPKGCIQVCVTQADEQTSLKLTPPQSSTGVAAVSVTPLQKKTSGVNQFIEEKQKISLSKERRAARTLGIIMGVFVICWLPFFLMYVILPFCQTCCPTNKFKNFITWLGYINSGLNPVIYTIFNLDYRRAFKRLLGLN

tyramine receptor = biological target: T2, tyramine receptor (Drosophila melanogaster, UniProt P22270); assay: Whole cell 3H-tyramine binding/uptake in transfected Schneider cells
T2 construct: oligonucleotides that are used to amplify the open reading frame of the Drosophila tyramine receptor (TyrR); expressed in transfected cells; whole cells or crude membrane fractions
T2 sequence (P22270 27-601): T1 sequence (P22270 27-601)
Excerpt: For transfection, Drosophila Schneider cells are stably transfected with pAc5(B)-TyrR ORF using the calcium phosphate-DNA coprecipitation protocol as described by Invitrogen Drosophila Expression System (DES) manual. The precipitation protocol is the same for either transient or stable transfection except for the use of an antibiotic resistant plasmid for stable transfection. At least about ten clones of stably transfected cells are selected and separately propagated. Stable clones expressing the receptors are selected by whole cell binding/uptake using ^3H-tyramine. […] Nonspecific binding is determined by including about 50 μM unlabeled-tyramine in the reaction. Binding is quantified counting radioactivity using a using a Liquid Scintillation β-counter (Beckman, Model LS1801). […]
Cells transfected with the tyramine receptor (about 1×10^6 cells/ml) are cultured in each well of a multi-well plate. […] Solubilized cells are transferred into about 4 ml Liquid Scintillation Solution (LSS) and vigorously vortexed for about 30 sec before counting the radioactivity using a Liquid Scintillation β-counter (Beckman, Model LS1801) (LSC).
Receptor specific binding data is expressed as fmol specific binding per 1×10^6 cells and measured as a function of ^3H-tyramine concentration. […]

[2] = Thrips, 24 h, read-out: mortality of the thrips
[3] = imidacloprid alone at 1 ppm, till the end of the experiment at 24 hours post treatment
[4] = imidacloprid alone at 10 ppm, till the end of the experiment at 24 hours post treatment
[5] = saturation binding to membranes of Schneider cells expressing tyramine receptor

CN/C(=N\[N+](=O)[O-])NCc1cnc(Cl)s1 [CL, clothianidin]
KD of the target insect (Aedes aegypti; CL alone at 250 ppm (FIG. 4B)): no KD
KD of the target insect (Aedes aegypti; CL alone at 500 ppm (FIG. 4A)): no KD
mortality of the target insect (Periplaneta americana; CL 0.05%, combination 0.05% + 5% (FIG. 6A)): no mortality

CC1(C)[C@H](C(=O)O[C@H](C#N)c2cccc(Oc3ccccc3)c2)[C@@H]1C=C(Br)Br [DM, deltamethrin]
100% Kill ([1]; Table 9: DM 0.037 mg/cm^2, Blend 12 1.9 mg/cm^2): 15 min
100% Kill ([1]; Table 10: DM 0.037 mg/cm^2): 12 min

N#Cc1nn(-c2c(Cl)cc(C(F)(F)F)cc2Cl)c(N)c1[S+]([O-])C(F)(F)F (centres unmarked) [Fipronil]
# of Flies Killed (Drosphila melanogaster): 12/30
# of Flies Killed (Drosphila melanogaster; listed as fipnoril): 12

O=[N+]([O-])NC1=NCCN1Cc1ccc(Cl)nc1 [Imidacloprid]
change in aphid numbers (adult green peach aphids): No changes in aphid numbers
KD of the target insect (Aedes aegypti; 30 seconds post-treatment, Imidacloprid 250 ppm, Blend 19 2.5%, combination 250 ppm + 2.5% (FIG. 4C)): 20%
KD of the target insect (Aedes aegypti; Imidacloprid 500 ppm, B5028 5%, combination 500 ppm + 5% (FIG. 5)): no KD
KD of the target insect (Drosophila sp.): 0%
mortality at 100 ppm (thrips; Thrips, 2 h, read-out: mortality of the thrips): 10%
mortality at 100 ppm (thrips; Thrips, 4 h, read-out: mortality of the thrips): 20%
mortality at 50 ppm (thrips; [2]): 50%
mortality at 100 ppm (thrips; [2]): 40%
KD of the thrips (thrips; [3]): no KD
mortality of the thrips (thrips; [3]): no mortality
KD of the thrips (thrips; [4]): no KD
mortality of the thrips (thrips; [4]): no mortality
KD of the thrips (thrips; imidacloprid alone at 20 ppm, 24 hours post treatment): 12%
mortality of the thrips (thrips; imidacloprid alone at 20 ppm, till the end of the experiment at 24 hours post treatment): no mortality
KD of the thrips (thrips; imidacloprid alone at 50 ppm, 24 hours post treatment): 100%
KD of the thrips (thrips; imidacloprid alone at 100 ppm, 2 hours post treatment): 10%
KD of the thrips (thrips; imidacloprid alone at 100 ppm, 4 hours post treatment): 20%
KD of the thrips (thrips; imidacloprid alone at 100 ppm, 24 hours post treatment): 80%
mortality of the target insect (Periplaneta americana; Imidacloprid alone at 0.05%, 0.033% and 0.01%, combination Imidacloprid 0.033% + 5% Blend 19 (FIG. 6B)): no mortality

NCC(O)c1ccc(O)cc1 (centres unmarked) [Octopamine]
rank order of potency (Ki and EC50) (tyramine receptor (TyrR)): tyramine>octopamine>dopamine>serotonin
efficiency at displacing ^3H-tyramine binding (tyramine receptor (TyrR)): less efficient than tyramine

NCCc1ccc(O)cc1 [Tyramine (TA), Tyramine]
response of untransfected cells (tyramine receptor; concentrations as high as about 100 μM): do not respond
rank order of potency (Ki and EC50) (tyramine receptor (TyrR)): tyramine>octopamine>dopamine>serotonin

NCCc1ccc(O)cc1 [^3H-tyramine]
^3H-tyramine concentration at which maximum specific binding occurs (tyramine receptor; whole transfected cells): about 5 nM
Bmax (tyramine receptor (TyrR); [5]): about 0.679 pmol/mg protein
Kd (tyramine receptor (TyrR); [5]): ~1.26 nM

NCCc1ccc(O)c(O)c1 [dopamine, Dopamine]
rank order of potency (Ki and EC50) (tyramine receptor (TyrR)): tyramine>octopamine>dopamine>serotonin
efficiency at displacing ^3H-tyramine binding (tyramine receptor (TyrR)): less efficient than tyramine

Source: patent US8691256B2, “Pest control compositions and methods” (Tyratech, Inc., priority 2008, dated 2014)
